Assay results: US10738028B2, “Spiro three-membered ring, spiro five-membered ring peptide deformylase inhibitor and use thereof in antibacteria and anti-tumor” (priority 2016, dated 2020)

Experiments:
Type in all cases: cell-based
[1] = test system: Escherichia coli (including ESBLs, non-ESBLs); test: MIC, two-fold agar dilution (CLSI), clinical isolates; conditions: for Anti-bacterial activity (MIC), strain ECO+ 15-1: clinical isolate ECO+ 15-1; for Anti-bacterial activity (MIC), strain ECO+ 15-2: clinical isolate ECO+ 15-2; for Anti-bacterial activity (MIC), strain ECO+ 15-3: clinical isolate ECO+ 15-3; for Anti-bacterial activity (MIC), strain ECO+ 15-4: clinical isolate ECO+ 15-4; for Anti-bacterial activity (MIC), strain ECO− 15-1: clinical isolate ECO− 15-1; for Anti-bacterial activity (MIC), strain ECO− 15-2: clinical isolate ECO− 15-2; for Anti-bacterial activity (MIC), strain ECO− 15-3: clinical isolate ECO− 15-3; for Anti-bacterial activity (MIC), strain ECO− 15-4: clinical isolate ECO− 15-4
Outline: (§1)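 Samples are serially diluted two-fold in agar following CLSI guidance. Plates are then inoculated with the tested strains. The lowest inhibiting concentration is recorded as MIC.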

[2] = test system: Enterococcus faecalis (EFA); test: as above; conditions: for Anti-bacterial activity (MIC), strain EFA 15-1: clinical isolate EFA 15-1; for Anti-bacterial activity (MIC), strain EFA 15-2: clinical isolate EFA 15-2; for Anti-bacterial activity (MIC), strain EFA 15-3: clinical isolate EFA 15-3; for Anti-bacterial activity (MIC), strain EFA 15-4: clinical isolate EFA 15-4; for Anti-bacterial activity (MIC), strain EFA 15-5: clinical isolate EFA 15-5; for Anti-bacterial activity (MIC), strain EFA 15-6: clinical isolate EFA 15-6; for Anti-bacterial activity (MIC), strain EFA 15-9: clinical isolate EFA 15-9
Outline: as §1

[3] = test system: methicillin-sensitive Staphylococcus aureus (MSSA); test: as above; conditions: for Anti-bacterial activity (MIC), strain MSSA 15-3: clinical isolate MSSA 15-3; for Anti-bacterial activity (MIC), strain MSSA 15-4: clinical isolate MSSA 15-4; for Anti-bacterial activity (MIC), strain MSSA 15-5: clinical isolate MSSA 15-5; for Anti-bacterial activity (MIC), strain MSSA 15-6: clinical isolate MSSA 15-6
Outline: as §1

[4] = test system: methicillin-resistant Staphylococcus epidermidis (MRSE); test: as above; conditions: for Anti-bacterial activity (MIC), strain MRSE 15-1: clinical isolate MRSE 15-1; for Anti-bacterial activity (MIC), strain MRSE 15-2: clinical isolate MRSE 15-2; for Anti-bacterial activity (MIC), strain MRSE 15-3: clinical isolate MRSE 15-3; for Anti-bacterial activity (MIC), strain MRSE 15-7: clinical isolate MRSE 15-7
Outline: as §1

[5] = test system: Streptococcus pneoumoniae (SPN); test: as above; conditions: for Anti-bacterial activity (MIC), strain SPN 16-2: clinical isolate SPN 16-2; for Anti-bacterial activity (MIC), strain SPN 16-4: clinical isolate SPN 16-4
Outline: as §1

[6] = test system: methicillin-resistant Staphylococcus aureus (MRSA); test: as above; conditions: for Anti-bacterial activity (MIC), strain MRSA 15-1: clinical isolate MRSA 15-1; for Anti-bacterial activity (MIC), strain MRSA 15-2: clinical isolate MRSA 15-2; for Anti-bacterial activity (MIC), strain MRSA 15-3: clinical isolate MRSA 15-3; for Anti-bacterial activity (MIC), strain MRSA 15-4: clinical isolate MRSA 15-4
Outline: as §1

[7] = test system: methicillin-sensitive Staphylococcus epidermidis (MSSE); test: as above; conditions: for Anti-bacterial activity (MIC), strain MSSE 15-3: clinical isolate MSSE 15-3; for Anti-bacterial activity (MIC), strain MSSE 15-4: clinical isolate MSSE 15-4; for Anti-bacterial activity (MIC), strain MSSE 15-5: clinical isolate MSSE 15-5; for Anti-bacterial activity (MIC), strain MSSE 15-6: clinical isolate MSSE 15-6
Outline: as §1

[8] = test system: Enterococcus faecium (EFM); test: as above; conditions: for Anti-bacterial activity (MIC), strain EFM 15-1: clinical isolate EFM 15-1; for Anti-bacterial activity (MIC), strain EFM 15-2: clinical isolate EFM 15-2; for Anti-bacterial activity (MIC), strain EFM 15-3: clinical isolate EFM 15-3; for Anti-bacterial activity (MIC), strain EFM 15-4: clinical isolate EFM 15-4; for Anti-bacterial activity (MIC), strain EFM 15-5: clinical isolate EFM 15-5; for Anti-bacterial activity (MIC), strain EFM 15-6: clinical isolate EFM 15-6
Outline: as §1

[9] = test system: Moraxella catarrhalis (BCA); test: as above; conditions: for Anti-bacterial activity (MIC), strain BCA 14-1: clinical isolate BCA 14-1; for Anti-bacterial activity (MIC), strain BCA 14-4: clinical isolate BCA 14-4; for Anti-bacterial activity (MIC), strain BCA 14-5: clinical isolate BCA 14-5; for Anti-bacterial activity (MIC), strain BCA 14-6: clinical isolate BCA 14-6; for Anti-bacterial activity (MIC), strain BCA 14-7: clinical isolate BCA 14-7; for Anti-bacterial activity (MIC), strain BCA 14-8: clinical isolate BCA 14-8; for Anti-bacterial activity (MIC), strain BCA 14-10: clinical isolate BCA 14-10
Outline: as §1

[10] = test system: HCT-116 colorectal cancer cell line; test: CCK-8 proliferation inhibition; conditions: Homo sapiens, HCT-116, 72 h, concentration of 30 μM; 72 hours; CCK-8; read-out: HCT116 inhibition rate/%
Outline: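 2000 cells/well, McCoy's 5A + 10% newborn bovine serum; overnight attach, 37° C./5% CO2. Cpd from DMSO stock diluted in medium, 72 h. Readout: CCK-8 (1:10). Ctrl 1‰ DMSO.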

CCCC[C@H](CC(=O)NO)C(=O)N1CC2(CC2)C[C@H]1C(=O)Nc1cnccn1 [Example 44]
Anti-bacterial activity (MIC), strain ECO+ 15-1 [1]: 32 µg/mL
Anti-bacterial activity (MIC), strain ECO+ 15-2 [1]: > 32 µg/mL
Anti-bacterial activity (MIC), strain ECO+ 15-3 [1]: > 32 µg/mL
Anti-bacterial activity (MIC), strain ECO+ 15-4 [1]: 1 µg/mL
Anti-bacterial activity (MIC), strain ECO− 15-1 [1]: 32 µg/mL
Anti-bacterial activity (MIC), strain ECO− 15-2 [1]: > 32 µg/mL
Anti-bacterial activity (MIC), strain ECO− 15-3 [1]: > 32 µg/mL
Anti-bacterial activity (MIC), strain ECO− 15-4 [1]: > 32 µg/mL
Anti-bacterial activity (MIC), strain EFA 15-1 [2]: > 32 µg/mL
Anti-bacterial activity (MIC), strain EFA 15-2 [2]: > 32 µg/mL
Anti-bacterial activity (MIC), strain EFA 15-3 [2]: > 32 µg/mL
Anti-bacterial activity (MIC), strain EFA 15-4 [2]: > 32 µg/mL
Anti-bacterial activity (MIC), strain EFA 15-5 [2]: > 32 µg/mL
Anti-bacterial activity (MIC), strain EFA 15-6 [2]: > 32 µg/mL
Anti-bacterial activity (MIC), strain EFA 15-9 [2]: 32 µg/mL
Anti-bacterial activity (MIC), strain MSSA 15-3 [3]: 0.5 µg/mL
Anti-bacterial activity (MIC), strain MSSA 15-4 [3]: 1 µg/mL
Anti-bacterial activity (MIC), strain MSSA 15-5 [3]: 1 µg/mL
Anti-bacterial activity (MIC), strain MSSA 15-6 [3]: > 32 µg/mL
Anti-bacterial activity (MIC), strain MRSE 15-1 [4]: 1 µg/mL
Anti-bacterial activity (MIC), strain MRSE 15-2 [4]: 1 µg/mL
Anti-bacterial activity (MIC), strain MRSE 15-3 [4]: 1 µg/mL
Anti-bacterial activity (MIC), strain MRSE 15-7 [4]: 1 µg/mL
Anti-bacterial activity (MIC), strain SPN 16-2 [5]: 1 µg/mL
Anti-bacterial activity (MIC), strain SPN 16-4 [5]: 1 µg/mL
Anti-bacterial activity (MIC), strain MRSA 15-1 [6]: 0.5 µg/mL
Anti-bacterial activity (MIC), strain MRSA 15-2 [6]: 1 µg/mL
Anti-bacterial activity (MIC), strain MRSA 15-3 [6]: 1 µg/mL
Anti-bacterial activity (MIC), strain MRSA 15-4 [6]: 1 µg/mL
Anti-bacterial activity (MIC), strain MSSE 15-3 [7]: 1 µg/mL
Anti-bacterial activity (MIC), strain MSSE 15-4 [7]: 1 µg/mL
Anti-bacterial activity (MIC), strain MSSE 15-5 [7]: 1 µg/mL
Anti-bacterial activity (MIC), strain MSSE 15-6 [7]: 1 µg/mL
Anti-bacterial activity (MIC), strain EFM 15-1 [8]: > 32 µg/mL
Anti-bacterial activity (MIC), strain EFM 15-2 [8]: > 32 µg/mL
Anti-bacterial activity (MIC), strain EFM 15-3 [8]: > 32 µg/mL
Anti-bacterial activity (MIC), strain EFM 15-4 [8]: > 32 µg/mL
Anti-bacterial activity (MIC), strain EFM 15-5 [8]: 1 µg/mL
Anti-bacterial activity (MIC), strain EFM 15-6 [8]: 2 µg/mL
Anti-bacterial activity (MIC), strain BCA 14-1 [9]: 4 µg/mL
Anti-bacterial activity (MIC), strain BCA 14-4 [9]: 4 µg/mL
Anti-bacterial activity (MIC), strain BCA 14-5 [9]: 1 µg/mL
Anti-bacterial activity (MIC), strain BCA 14-6 [9]: 2 µg/mL
Anti-bacterial activity (MIC), strain BCA 14-7 [9]: 4 µg/mL
Anti-bacterial activity (MIC), strain BCA 14-8 [9]: 4 µg/mL
Anti-bacterial activity (MIC), strain BCA 14-10 [9]: 2 µg/mL
inhibition at 30 µM [10]: 21%

CCCC[C@H](CC(=O)NO)C(=O)N1CC2(CC2)C[C@H]1C(=O)Nc1ccncn1 [Example 45]
Anti-bacterial activity (MIC), strain ECO+ 15-1 [1]: 32 µg/mL
Anti-bacterial activity (MIC), strain ECO+ 15-2 [1]: > 32 µg/mL
Anti-bacterial activity (MIC), strain ECO+ 15-3 [1]: > 32 µg/mL
Anti-bacterial activity (MIC), strain ECO+ 15-4 [1]: 1 µg/mL
Anti-bacterial activity (MIC), strain ECO− 15-1 [1]: 32 µg/mL
Anti-bacterial activity (MIC), strain ECO− 15-2 [1]: > 32 µg/mL
Anti-bacterial activity (MIC), strain ECO− 15-3 [1]: > 32 µg/mL
Anti-bacterial activity (MIC), strain ECO− 15-4 [1]: > 32 µg/mL
Anti-bacterial activity (MIC), strain EFA 15-1 [2]: > 32 µg/mL
Anti-bacterial activity (MIC), strain EFA 15-2 [2]: > 32 µg/mL
Anti-bacterial activity (MIC), strain EFA 15-3 [2]: > 32 µg/mL
Anti-bacterial activity (MIC), strain EFA 15-4 [2]: > 32 µg/mL
Anti-bacterial activity (MIC), strain EFA 15-5 [2]: > 32 µg/mL
Anti-bacterial activity (MIC), strain EFA 15-6 [2]: > 32 µg/mL
Anti-bacterial activity (MIC), strain EFA 15-9 [2]: 16 µg/mL
Anti-bacterial activity (MIC), strain MSSA 15-3 [3]: 0.5 µg/mL
Anti-bacterial activity (MIC), strain MSSA 15-4 [3]: 1 µg/mL
Anti-bacterial activity (MIC), strain MSSA 15-5 [3]: 1 µg/mL
Anti-bacterial activity (MIC), strain MSSA 15-6 [3]: > 32 µg/mL
Anti-bacterial activity (MIC), strain MRSE 15-1 [4]: 1 µg/mL
Anti-bacterial activity (MIC), strain MRSE 15-2 [4]: 1 µg/mL
Anti-bacterial activity (MIC), strain MRSE 15-3 [4]: 1 µg/mL
Anti-bacterial activity (MIC), strain MRSE 15-7 [4]: 1 µg/mL
Anti-bacterial activity (MIC), strain SPN 16-2 [5]: 0.5 µg/mL
Anti-bacterial activity (MIC), strain SPN 16-4 [5]: 0.5 µg/mL
Anti-bacterial activity (MIC), strain MRSA 15-1 [6]: 0.5 µg/mL
Anti-bacterial activity (MIC), strain MRSA 15-2 [6]: 1 µg/mL
Anti-bacterial activity (MIC), strain MRSA 15-3 [6]: 1 µg/mL
Anti-bacterial activity (MIC), strain MRSA 15-4 [6]: 1 µg/mL
Anti-bacterial activity (MIC), strain MSSE 15-3 [7]: 1 µg/mL
Anti-bacterial activity (MIC), strain MSSE 15-4 [7]: 1 µg/mL
Anti-bacterial activity (MIC), strain MSSE 15-5 [7]: 1 µg/mL
Anti-bacterial activity (MIC), strain MSSE 15-6 [7]: 1 µg/mL
Anti-bacterial activity (MIC), strain EFM 15-1 [8]: > 32 µg/mL
Anti-bacterial activity (MIC), strain EFM 15-2 [8]: > 32 µg/mL
Anti-bacterial activity (MIC), strain EFM 15-3 [8]: > 32 µg/mL
Anti-bacterial activity (MIC), strain EFM 15-4 [8]: > 32 µg/mL
Anti-bacterial activity (MIC), strain EFM 15-5 [8]: 0.5 µg/mL
Anti-bacterial activity (MIC), strain EFM 15-6 [8]: 0.5 µg/mL
Anti-bacterial activity (MIC), strain BCA 14-1 [9]: 1 µg/mL
Anti-bacterial activity (MIC), strain BCA 14-4 [9]: 1 µg/mL
Anti-bacterial activity (MIC), strain BCA 14-5 [9]: 0.5 µg/mL
Anti-bacterial activity (MIC), strain BCA 14-6 [9]: 0.5 µg/mL
Anti-bacterial activity (MIC), strain BCA 14-7 [9]: 1 µg/mL
Anti-bacterial activity (MIC), strain BCA 14-8 [9]: 1 µg/mL
Anti-bacterial activity (MIC), strain BCA 14-10 [9]: 1 µg/mL
inhibition at 30 µM [10]: 25%
